{"source": "patent US5525329A", "about": "“Inhibition of phosphodiesterase in olfactory mucosa” (priority 1995, dated 1996)", "key": {"[1]": {"test_system": "phosphodiesterase, olfactory mucosa", "test": "PDE activity in homogenates of olfactory mucosa (turbinates)", "assay_type": "biochemical, rat", "conditions": "for reduction of PDE activity / inhibition of cAMP hydrolysis / inhibition of cGMP hydrolysis: 10 μM drug; for inhibition of cAMP hydrolysis: 1 μM cAMP, no added Ca^2+", "experimental": "(§1) Assays were performed with 100 μM Ca^2+ (hatched bars) or with 100 μM EGTA (solid bars).\n(§2) Enzymol. […] Tissue was warmed to 37° C. and 100 μl aliquots containing 1-2 […] protein added to initiate the assay which was conducted for 20 minutes at 37° C. […] For experiments at 100 μM free Ca^2+, the reaction mix included 0.2 mM CaCl2 and 50 nM calmodulin (Sigma) where appropriate. Low Ca^2+ conditions were achieved by addition of 2.0 mM EGTA. Ca^2+ levels were measured against standards using a conductivity meter and Ca^2+ electrode (Biomedical Instrumentation Group, Philadelphia, Pa.). Following incubation, reactions were stopped by boiling for 1.5 minutes and cooling on ice, whereupon 100 μl aliquots of 5'-nucleotidase (10 units/ml in 0.1M Tris pH 8.1) were added and samples incubated for 30 minutes at 37° C. Incubation mixtures were applied to QAE-Sephadex columns pre-equilibrated with 30 mM ammonium formate, with flow through and eluate from two 1 ml washes collected in plastic scintillation vials.\nSubcellular fractions were obtained as described below. Rats were anesthetized with carbon dioxide, decapitated and tissue dissected. Nasal turbinates were dissected intact and consisted of the entire olfactory mucosa, including endothelial tissue, olfactory epithelium, and overlying mucous. […] For fractionation, tissue was first centrifuged at 500×g for 5 minutes in a Sorvall RC 2B superspeed refrigerated centrifuge (DuPont, Wilmington, Del.). The crude particulate (P1) pellet was discarded and the supernatant (S1) centrifuged 20 minutes at 28,000×g. The resultant pellet (P2) was washed in BHB, centrifuged and resuspended in 5 ml BHB, and designated the membrane fraction. The supernatant (S2) was centrifuged 50 minutes at 230,000×g in Beckman L8-M ultracentrifuge (Fullerton, Calif.). The pellet (P3) was washed in BHB, recentrifuged in an ultracentrifuge, and resuspended in 2 ml BHB as the microsomal fraction. The supernatant (S3) was saved as the soluble fraction and visually inspected for absence of cloudiness or lipid droplets. In all cases, protein was assayed by the Bradford method using Coomassie Protein Assay Reagent (Pierce, Rockford, Ill.) and BSA as standard."}, "[2]": {"target": "T1, phosphodiesterase, olfactory cilia (Rattus norvegicus, UniProt Q63421)", "T1 construct": "Tissue was prepared either as cilia, using the method of Sklar et al., (1986); from tissue; host or cells: olfactory cilia preparation", "T1 sequence (Q63421 whole entry)": "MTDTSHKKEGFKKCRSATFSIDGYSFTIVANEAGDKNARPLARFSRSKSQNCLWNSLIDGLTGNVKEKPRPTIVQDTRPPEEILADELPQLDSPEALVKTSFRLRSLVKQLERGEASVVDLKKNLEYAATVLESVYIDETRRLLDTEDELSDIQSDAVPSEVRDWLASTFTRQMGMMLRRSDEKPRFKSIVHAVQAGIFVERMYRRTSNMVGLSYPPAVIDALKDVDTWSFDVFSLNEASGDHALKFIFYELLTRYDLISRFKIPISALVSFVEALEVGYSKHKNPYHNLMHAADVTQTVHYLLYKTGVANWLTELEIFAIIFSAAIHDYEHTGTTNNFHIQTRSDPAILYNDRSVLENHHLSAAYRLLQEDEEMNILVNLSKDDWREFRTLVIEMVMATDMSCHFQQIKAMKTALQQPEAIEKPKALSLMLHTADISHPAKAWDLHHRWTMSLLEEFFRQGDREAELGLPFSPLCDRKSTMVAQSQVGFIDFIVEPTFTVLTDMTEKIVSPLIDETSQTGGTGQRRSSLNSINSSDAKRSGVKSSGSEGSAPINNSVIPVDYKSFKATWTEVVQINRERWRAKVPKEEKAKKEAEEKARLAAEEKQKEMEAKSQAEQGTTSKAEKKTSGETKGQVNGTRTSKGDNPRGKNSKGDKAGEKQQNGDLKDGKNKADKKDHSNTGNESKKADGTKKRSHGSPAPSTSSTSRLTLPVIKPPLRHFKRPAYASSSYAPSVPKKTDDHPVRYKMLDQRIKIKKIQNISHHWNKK", "test": "PDE activity in olfactory cilia", "assay_type": "biochemical", "experimental": "as §1\n(§3) Activity is graphed as a function of total cyclic nucleotides present using olfactory cilia, or mucosa with 1 μM cGMP.\n(§4) FIG 4B is a graph of activity, 1 μM cGMP used as substrate: 100 μM EGTA (open circles); 100 μM Ca^2+ (filled circles); 100 μM Ca^2+ in the presence of 200 μM W-7 (filled squares).\nas §2"}, "[3]": {"test_system": "cGMP-inhibited PDE", "conditions": "reported in literature; cited from earlier work"}, "[4]": {"test_system": "high affinity cAMP-selective form of PDE", "conditions": "reported in literature, cited from earlier work"}, "[5]": {"test_system": "phosphodiesterase, olfactory cilia", "test": "PDE activity in olfactory cilia", "assay_type": "biochemical, rat", "experimental": "as §1, §3, §4, §2"}, "[6]": {"target": "T1, phosphodiesterase, olfactory cilia", "test": "PDE activity in olfactory cilia", "assay_type": "biochemical", "remark": "listed apart in the source"}, "[7]": {"conditions": "olfactory mucosa, 1 μM cGMP, 100 μM EGTA"}, "[8]": {"conditions": "10 μM drug, presence or absence of Ca^2+"}}, "note": "Entries after “also recorded” stand apart in the source; their conditions may differ. Where two headings read alike, the source gives them in different places.", "data": [{"molecule": "CC1CC(=O)NN=C1c1ccc(-n2ccnc2)cc1", "note": "(stereo not drawn) [CI 930]", "values": [{"measurement": "reduction of PDE activity", "setting": "[1]; 100 μM Ca^2+", "result": "about 15%"}, {"measurement": "reduction of PDE activity", "setting": "[1]; 100 μM EGTA", "result": "about 30%"}, {"measurement": "inhibition at 10 µM", "setting": "[2]; 10 μM drug, regardless of assay conditions, read-out: inhibition of PDE in cilia", "result": "< 10", "unit": "%"}, {"measurement": "selectivity for cGMP-inhibited PDE", "setting": "[3]", "result": "selective for cGMP-inhibited PDE"}]}, {"molecule": "CCCCOc1cc(CC2CNC(=O)N2)ccc1OC", "note": "(stereo not drawn) [Ro20-1724]", "values": [{"measurement": "inhibition of olfactory PDE in the presence of calcium", "setting": "[1]; olfactory PDE, presence of calcium", "result": "about 15%"}, {"measurement": "inhibition of cAMP hydrolysis", "setting": "[1]; olfactory mucosa, 100 μM EGTA", "result": 66, "unit": "%"}, {"measurement": "inhibition of cGMP hydrolysis", "setting": "[1]; [7]", "result": "Neither 10 μM rolipram nor 10 μM Ro20-1724 inhibit cGMP hydrolysis"}, {"measurement": "inhibition of PDE in cilia", "setting": "[2]; [8]", "result": "neither rolipram (10 μM) nor Ro20-1724 (10 μM) inhibit PDE"}, {"measurement": "selective inhibition of the high affinity cAMP-selective form of PDE", "setting": "[4]", "result": "selectively inhibit the high affinity cAMP-selective form of PDE"}, {"measurement": "selective inhibition of the high affinity cAMP-selective form of PDE", "setting": "[4]; listed as Ro 20-1724", "result": "selective inhibitor of calcium/calmodulin-independent, high affinity PDE"}]}, {"molecule": "NCCCCCCNS(=O)(=O)c1cccc2c(Cl)cccc12", "note": "[W-7]", "values": [{"measurement": "reduction of stimulation by calmodulin", "setting": "[5]; cilia, 100 μM W-7 (cAMP) or 200 μM W-7 (cGMP), 100 μM Ca^2+", "result": "substantially reduces stimulation by calmodulin"}]}, {"molecule": "Nc1nc2c(ncn2[C@@H]2O[C@@H]3COP(=O)(O)O[C@H]3[C@H]2O)c(=O)[nH]1", "note": "[cGMP]", "values": [{"measurement": "maximal enhancement of cAMP hydrolysis by cGMP", "setting": "[1]; olfactory mucosa, 1 μM cGMP, 10 μM cAMP, 100 μM EGTA", "result": "20-30%"}, {"measurement": "effect of cGMP on cAMP hydrolysis when Ca^2+ and calmodulin are added", "setting": "[5]; cilia and olfactory mucosa, Ca^2+ and calmodulin added", "result": "diminishes markedly"}, {"measurement": "maximal enhancement of cAMP hydrolysis by cGMP", "setting": "[5]; cilia, 1 μM cGMP, 10 μM cAMP, 100 μM EGTA", "result": "20-30%"}]}, {"molecule": "CCCCn1c(=O)c2c(ncn2CC(C)=O)n(CCCC)c1=O", "note": "[denbufylline]", "values": [{"measurement": "inhibition of cAMP hydrolysis", "setting": "[1]; olfactory mucosa, 100 μM EGTA", "result": 64, "unit": "%"}, {"measurement": "inhibition of cGMP hydrolysis", "setting": "[1]; [7]", "result": "about 20%"}, {"measurement": "inhibition at 10 µM", "setting": "[2]; 10 μM drug, 1 μM cGMP, presence or absence of Ca^2+, read-out: inhibition of ciliary cGMP PDE", "result": "15 to 20", "unit": "%"}, {"measurement": "inhibition at 10 µM", "setting": "[6]; read-out: inhibition of ciliary cAMP PDE", "result": "15 to 20", "unit": "%"}, {"measurement": "selective inhibition of the high affinity cAMP-selective form of PDE", "setting": "[4]", "result": "selectively inhibit the high affinity cAMP-selective form of PDE"}]}, {"molecule": "Cc1[nH]c(=O)c(C#N)cc1-c1ccncc1", "note": "[milrinone]", "values": [{"measurement": "reduction of PDE activity", "setting": "[1]; 100 μM Ca^2+", "result": "about 15%"}, {"measurement": "reduction of PDE activity", "setting": "[1]; 100 μM EGTA", "result": "about 30%"}, {"measurement": "inhibition at 10 µM", "setting": "[2]; read-out: inhibition of PDE in cilia", "result": "< 10", "unit": "%"}, {"measurement": "selectivity for cGMP-inhibited PDE", "setting": "[3]", "result": "selective for cGMP-inhibited PDE"}]}, {"molecule": "COc1ccc(C2CNC(=O)C2)cc1OC1CCCC1", "note": "(stereo not drawn) [rolipram]", "values": [{"measurement": "inhibition of cAMP hydrolysis", "setting": "[1]; olfactory mucosa, 100 μM EGTA", "result": 49, "unit": "%"}, {"measurement": "inhibition of cGMP hydrolysis", "setting": "[1]; [7]", "result": "Neither 10 μM rolipram nor 10 μM Ro20-1724 inhibit cGMP hydrolysis"}, {"measurement": "inhibition of PDE in cilia", "setting": "[2]; [8]", "result": "neither rolipram (10 μM) nor Ro20-1724 (10 μM) inhibit PDE"}, {"measurement": "selective inhibition of the high affinity cAMP-selective form of PDE", "setting": "[4]", "result": "selectively inhibited; also recorded: selectively inhibit the high affinity cAMP-selective form of PDE"}]}, {"molecule": "calmodulin", "values": [{"measurement": "effect of calmodulin on stimulation of enzyme activity by Ca^2+", "setting": "[1]; mucosal homogenates, 1 μM cAMP or cGMP", "result": "further enhances the stimulation of enzyme activity by Ca^2+"}, {"measurement": "EC50", "setting": "[2]; cilia, 1 μM cGMP, read-out: half maximal stimulation of PDE activity by calmodulin", "result": 10, "unit": "nM"}, {"measurement": "EC50", "setting": "[6]; cilia, 1 μM cAMP, read-out: half maximal stimulation of PDE activity by calmodulin", "result": 10, "unit": "nM"}]}]}
